In ChEMBL document CHEMBL5233235, “Chalcone hybrids as privileged scaffolds in antimalarial drug discovery: A key review” (Eur J Med Chem, 2020):
≈ marks a conversion by molar mass, not a printed value. One block for each molecule: values may come before it.

Columns and labels:
Plasmodium = assay: Antimalarial activity against Plasmodium falciparum K1 by [3H]-hypoxanthine uptake assay; format: functional, organism-based
Plasmodium falciparum [1] = assay: Antimalarial activity against Plasmodium falciparum; format: functional, organism-based
Plasmodium falciparum [2] = assay: Antimalarial activity against chloroquine-sensitive Plasmodium falciparum 3D7; format: functional, organism-based
[3] = Selectivity index, ratio of EC50 for cytotoxicity against mouse FM3A cells to EC50 for antimalarial activity against Plasmodium falciparum ATCC 30932; format: toxicity, cell-based; details: read-out: Ratio EC50
[4] = Cytotoxicity against mouse FM3A cells incubated for 48 hrs; format: toxicity, cell-based
Plasmodium falciparum [5] = assay: Antimalarial activity against Plasmodium falciparum ATCC 30932 incubated for […]; format: functional, organism-based
Plasmodium falciparum [6] = assay: Antiparasitic activity against Plasmodium falciparum W2 incubated for 48 hrs by flow cytometry based analysis; format: functional, organism-based; details: W2, 48 h
Plasmodium falciparum [7] = assay: Antiplasmodial activity against Plasmodium falciparum 3D7 incubated for 30 hrs followed by addition of [3H]-hypoxanthine and measured after 18 hrs by liquid scintillation counting method; format: functional, organism-based
[8] = Cytotoxicity against human HepG2 cells; format: toxicity, cell-based
Plasmodium falciparum [9] = assay: Antimalarial activity against chloroquine-resistant Plasmodium falciparum W2 incubated for 48 hrs by microscopic analysis; format: functional, organism-based; details: W2, 48 h
Plasmodium falciparum [10] = assay: Antimalarial activity against chloroquine-sensitive Plasmodium falciparum 3D7 by candle jar method; format: functional, organism-based
Plasmodium falciparum [11] = assay: Antimalarial activity against Plasmodium falciparum 3D7; format: functional, organism-based
[12] = Plasmodium falciparum, 3D7, read-out: IC50

- IC50 (Plasmodium): < 5000 nM
Structure (SMILES): COc1ccc(C(=O)/C=C/c2cnc3ccccc3c2)c(OC)c1

- IC50 (Plasmodium): < 5000 nM
Structure (SMILES): CCc1ccc(/C=C/C(=O)c2ccc(OC)cc2OC)cc1

- IC50 (Plasmodium): < 5000 nM
Structure (SMILES): COc1ccc(/C=C/C(=O)c2ccc(OC)cc2OC)c(OC)c1

- IC50 (Plasmodium falciparum [1]): 2100 nM
Structure (SMILES): O=C(/C=C/c1c[nH]c2ccccc12)c1ccccc1O

- IC50 (Plasmodium falciparum [2]): < 5 µg/mL
Structure (SMILES): O=C(/C=C/c1ccc([N+](=O)[O-])cc1)c1c(O)c2ccccc2oc1=O

- EC50 (Plasmodium falciparum [5]): 1 µg/mL (≈ 3.18 µM)
Structure (SMILES): COc1ccc(C(=O)/C=C/c2ccc(OC)c(OC)c2)c(O)c1
- selectivity ratio [3]: > 3.3
- EC50 at 48 h [4]: > 3.3 µg/mL

- MIC (Plasmodium falciparum [1]): 10 µg/mL (≈ 23.6 µM)
Structure (SMILES): O=C(/C=C/c1cc2ccccc2nc1Cl)c1cc(Br)cc(Cl)c1O

- MIC (Plasmodium falciparum [1]): 50 µg/mL (≈ 111 µM)
Structure (SMILES): Cc1cccc(C(=O)/C=C(\I)c2cc3ccccc3nc2Cl)c1O

- IC50 (Plasmodium falciparum [6]): 480 nM
Structure (SMILES): COc1cc(/C=C/C(=O)c2ccc(NS(=O)(=O)c3cc(Cl)ccc3Cl)cc2)cc(OC)c1OC

- IC50 (Plasmodium falciparum [7]; [12]): 6 µg/mL (≈ 16.2 µM)
Structure (SMILES): CCO/C(C)=N/Oc1ccc(C(=O)/C=C/c2cc(OC)ccc2OC)cc1

- IC50 (Plasmodium falciparum [7]; [12]): 12 µg/mL (≈ 33.4 µM)
Structure (SMILES): CCO/C(C)=N/Oc1ccc(/C=C/C(=O)c2ccc3ccccc3c2)cc1
- IC50 [8]: 54 µg/mL (≈ 150 µM)

Structure (SMILES): O=C(/C=C/c1cccc(S(=O)(=O)N2CCOCC2)c1)c1ccccc1
- IC50 (Plasmodium falciparum [9]): 2060 nM

- IC50 (Plasmodium falciparum [10]): 1.1 µg/mL (≈ 2.86 µM)
Structure (SMILES): COc1ccc(/C=C/C(=O)c2ccc(-n3ncc4ccccc43)cc2)c(OC)c1

- IC50 (Plasmodium falciparum [6]): 670 nM
Structure (SMILES): O=C(/C=C/c1ccc(F)cc1F)c1ccc(NS(=O)(=O)c2cc(Cl)ccc2Cl)cc1

- IC50 (Plasmodium falciparum [7]; [12]): 12 µg/mL (≈ 30 µM)
Structure (SMILES): CCO/C(C)=N/Oc1ccc(C(=O)/C=C/c2cc(OC)c(OC)c(OC)c2)cc1
- IC50 [8]: 20 µg/mL (≈ 50.1 µM)

- MIC (Plasmodium falciparum [1]): 10 µg/mL (≈ 22.1 µM)
Structure (SMILES): COc1ccc2nc(Cl)c(/C=C/C(=O)c3cc(Br)cc(Cl)c3O)cc2c1

- IC50 (Plasmodium falciparum [1]): 6200 nM
Structure (SMILES): COc1cc(/C=C/C(=O)c2c[n+]([O-])c3ccccc3[n+]2[O-])cc(OC)c1OC

- IC50 (Plasmodium falciparum [1]): 5800 nM
Structure (SMILES): O=C(/C=C/c1ccc2ccccc2c1)c1c[n+]([O-])c2ccccc2[n+]1[O-]

- IC50 (Plasmodium falciparum [7]; [12]): 12 µg/mL (≈ 28.9 µM)
Structure (SMILES): CCO/C(C)=N/Oc1ccc(C(=O)/C=C/c2ccc(OCc3ccccc3)cc2)cc1

Structure (SMILES): C[C@@H]1CC[C@H]2[C@@H](C)C(=O)O[C@@H]3O[C@@]4(C)CC[C@@H]1[C@]32OO4 [ARTEMISININ]
- IC50 (Plasmodium falciparum [7]): 0.021 uM/ml

- IC50 (Plasmodium falciparum [11]): 590 nM
Structure (SMILES): COc1ccc(C(=O)/C=C/c2ccc(O)c(O)c2)c(O)c1 [CALYTHROPSIN]
